One may read the IC50 as the midpoint of a concentration-inhibition curve.

Experimental findings from patent publication US20180064681A1, “THERAPEUTIC COMBINATIONS OF CURCUMINOIDS AND FLAVONOIDS” (Primus Pharmaceuticals, Inc., priority 2015, published 2018) are described below.

The test system of test [1] is NF-κB p65 mRNA. As to the kind of experiment: NF-κB (p65) mRNA expression in LPS-stimulated human articular chondrocytes (real-time PCR). Type of test: cell-based. The note with it: LPS 2 μg/ml, 4 hours.
Protocol: (§1) Human articular chondrocytes were cultured in six well culture Petri dishes at a density of 2.5×10^5 cells/well, in a specific chondrocyte growth medium supplemented with 1% antibiotic—antimycotic mixture, at 37° C. in 5% CO2 humidified incubator. The medium was renewed every 2 days. […] Finally, the cells and medium underwent molecular evaluation 4 hours after the treatments.
(§2) Total RNA was isolated from human chondrocytes for reverse-PCR real time evaluation of IL-1beta, COX2, MMP1, MMP-3, MMP9, MMP13, NF-kB (p50), NF-kB (p65), IL-13 and 5-LOX mRNA (Real Time PCR system, mod 7500, Applied Biosystems, Carlsbad, Calif.) using Trizol Reagent Kit (Life Technologies, Monza, Italy). The first strand of cDNA was synthesized from 5.0 μg total RNA using a high capacity cDNA Archive kit (Applied Biosystems, Carlsbad, Calif.). β-actin mRNA was used as an endogenous control to allow the relative quantification. […] The amplified PCR products were quantified by measuring the calculated cycle thresholds (CT) of IL-1beta, COX2, MMP1, MMP-3, MMP9, MMP13, NF-kB (p50), NF-kB (p65), IL-13 and 5-LOX and β-Actin mRNA. The amounts of specific mRNA in samples were calculated using the 2^ΔΔCT method. The mean value of normal chondrocytes target levels became the calibrator and the results are expressed as the n-fold difference relative to normal controls (relative expression levels). […]
Test [2] deals with IL-13 mRNA. The experiment in a line: IL-13 mRNA expression in LPS-stimulated human articular chondrocytes (real-time PCR). Type of test: cell-based. The note with it: LPS 2 μg/ml, 4 hours; curcumin alone 5 or 10 μg/ml. In general terms: In qPCR the cycle at which signal appears reflects the starting amount.
Protocol: as §1, §2
The subject of test [3] is IL-1β mRNA. The experiment in a line: Median effect / combination index analysis (Chou and Talalay) of reduction of IL-1β mRNA levels in chondrocytes. Type of test: cell-based. The note with it: Homo sapiens, Chondrocyte, read-out: IC50 (Dm) for reduction of IL-1β mRNA levels.
Protocol: We then plotted the dose-response curve (FIG. 21) as log (fa/fu) with respect to log (D) to generate the Median Effect Plot (FIG. 22).
The CI was calculated as:
The test system of test [4] is IL-1β mRNA. As to the kind of experiment: IL-1β mRNA expression in LPS-stimulated human articular chondrocytes (real-time PCR). Type of test: cell-based. The note with it: LPS 2 μg/ml, 4 hours.
Protocol: as §1, §2
The test system of test [5] is 5-LOX mRNA. As to the kind of experiment: 5-LOX mRNA expression in LPS-stimulated human articular chondrocytes (real-time PCR). Type of test: cell-based. The note with it: LPS 2 μg/ml, 4 hours; curcumin 10 μg/ml.
Protocol: as §1, §2
Test [6] deals with MMP-1 mRNA. As to the kind of experiment: MMP-1 mRNA expression in LPS-stimulated human articular chondrocytes (real-time PCR). Type of test: cell-based. The note with it: LPS 2 μg/ml, 4 hours.
Protocol: as §1, §2
Test [7] deals with COX-2 mRNA. Type of test: cell-based, human.
Protocol: as §1, §2
Test [8] concerns MMP-3 mRNA. The experiment in a line: MMP-3 mRNA expression in LPS-stimulated human articular chondrocytes (real-time PCR). Type of test: cell-based. The note with it: LPS 2 μg/ml, 4 hours.
Protocol: as §1, §2

For the compound `COc1cc(/C=C/C(=O)CC(=O)/C=C/c2ccc(O)c(OC)c2)ccc1O` [curcumin], the “NF-κB p65 mRNA expression” value was “failed to result in any change” in test [1] (curcumin 5 μg/ml) and “more pronounced decrease” in test [1] (curcumin 10 μg/ml alone). For the same compound, the “IL-13 mRNA expression” value in test [2] was “significantly increased in a dose dependent manner”. Moreover, the IC50 in test [3] is 14.3 µM. Moreover, the “IL-1β mRNA expression” value is “significantly blunted” in test [4] (curcumin 5 μg/ml) and “further decreased” in test [4] (curcumin 10 μg/ml alone). Further, in test [5], the “5-LOX mRNA expression” value was “blunted”. Besides, the entries for the “MMP-1 mRNA expression” value in test [6] (curcumin 5 μg/ml alone) and in test [6] (curcumin 10 μg/ml) were “significantly reduced” and “additional decrease in a concentration-dependent manner”, respectively. Moreover, in test [7], the “COX-2 mRNA expression” value is given as “significantly reduced”. Further, the “MMP-3 mRNA expression” value is “significantly reduced” in test [8] (curcumin 5 μg/ml alone) and “additional decrease in a concentration-dependent manner” in test [8] (curcumin 10 μg/ml).
